This note sets out measurements from ChEMBL document CHEMBL3526092 (Drug Metab Dispos, 2012).

Molecules are shown by their SMILES.

Data set [1] concerns the target T1, Cytochrome P450 3A4 (Homo sapiens, UniProt P08684). Nature of the data set: Inhibition of human CYP3A4 expressed in supersomes assessed inhibition of 1'-OH midazolam formation by LC-MS method. The format is ADME.
Data set [2] concerns the target T2, CYP3A5 (Homo sapiens, UniProt P20815). Nature of the data set: Inhibition of human CYP3A5 expressed in supersomes assessed inhibition of 1'-OH midazolam formation preincubated at 2 uM followed by addition of 20-fold diluted buffer with 20 uM MDZ by LC-MS method in presence of NADPH. The format is ADME. Conditions: supersomes expressing human CYP3A5, probe midazolam (20 uM; 1'-OH midazolam formation).

Data set [3] has as its target T3, CYP3A (Homo sapiens, UniProt P08684+P20815+P24462+Q9HB55). Nature of the data set: Inhibition of CYP3A-mediated 1'-OH midazolam formation in human liver microsomes after 7.5 mins by LC-MS method. The format is ADME. As to conditions: probe midazolam (1'-OH midazolam formation). On the technique in general: Liver microsomes are vesicles of endoplasmic reticulum, rich in cytochrome P450 enzymes.

The target of data set [4] is T4, CYP3A4 (Homo sapiens, UniProt P08684). Nature of the data set: Inhibition of human CYP3A4 expressed in supersomes assessed inhibition of 1'-OH midazolam formation preincubated with compound for 2.5 to 30 mins followed by addition of 20-fold diluted buffer with 20 uM MDZ by LC-MS method. Conditions: supersomes expressing human CYP3A4, probe midazolam (20 uM; 1'-OH midazolam formation). It counts as ADME.
T4 sequence (P08684 whole entry): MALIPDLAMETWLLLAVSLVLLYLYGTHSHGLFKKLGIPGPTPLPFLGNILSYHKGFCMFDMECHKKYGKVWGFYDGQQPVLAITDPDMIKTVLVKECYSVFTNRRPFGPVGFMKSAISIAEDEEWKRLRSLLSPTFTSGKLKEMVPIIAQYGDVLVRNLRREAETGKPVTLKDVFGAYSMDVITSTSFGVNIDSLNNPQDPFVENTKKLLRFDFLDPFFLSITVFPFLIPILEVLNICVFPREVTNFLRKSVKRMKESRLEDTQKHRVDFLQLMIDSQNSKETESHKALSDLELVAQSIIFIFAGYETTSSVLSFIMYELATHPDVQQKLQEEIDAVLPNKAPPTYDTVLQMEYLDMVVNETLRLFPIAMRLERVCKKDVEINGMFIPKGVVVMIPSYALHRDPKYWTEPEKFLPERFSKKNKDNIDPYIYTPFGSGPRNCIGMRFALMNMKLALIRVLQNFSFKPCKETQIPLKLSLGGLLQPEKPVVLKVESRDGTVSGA

The target of data set [5] is T5, Cytochrome P450 3A5 (Homo sapiens, UniProt P20815). Nature of the data set: Inhibition of human CYP3A5 expressed in supersomes assessed inhibition of 1'-OH midazolam formation preincubated with compound before substrate addition by LC-MS method. The format is ADME.
T5 sequence (P20815 whole entry): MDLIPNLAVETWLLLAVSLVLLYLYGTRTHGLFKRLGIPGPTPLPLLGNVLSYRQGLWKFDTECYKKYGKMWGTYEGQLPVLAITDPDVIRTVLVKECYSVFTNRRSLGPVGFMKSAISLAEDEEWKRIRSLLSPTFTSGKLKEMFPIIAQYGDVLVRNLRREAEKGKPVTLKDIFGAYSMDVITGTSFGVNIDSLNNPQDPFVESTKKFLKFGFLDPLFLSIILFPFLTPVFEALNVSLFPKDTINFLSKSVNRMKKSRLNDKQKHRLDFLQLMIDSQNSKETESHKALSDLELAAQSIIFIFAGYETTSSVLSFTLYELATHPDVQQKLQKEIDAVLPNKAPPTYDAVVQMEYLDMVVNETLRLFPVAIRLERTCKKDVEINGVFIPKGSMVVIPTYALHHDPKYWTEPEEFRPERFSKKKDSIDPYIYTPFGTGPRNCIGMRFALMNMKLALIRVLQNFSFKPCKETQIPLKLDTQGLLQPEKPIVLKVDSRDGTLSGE
In data set [6] the target is T1, Cytochrome P450 3A4. Nature of the data set: Reversible competitive inhibition of human CYP3A4-mediated 1'-OH midazolam formation in human liver microsomes after 7.5 mins by nonlinear regression study. The format is ADME.
Data set [7] deals with T3, CYP3A. Nature of the data set: Inhibition of CYP3A-mediated 1'-OH midazolam formation in human liver microsomes preincubated for 15 mins before substrate addition by LC-MS method. The format is ADME. Conditions: probe midazolam (1'-OH midazolam formation).
Data set [8] concerns the target T2, CYP3A5. Nature of the data set: Inhibition of human CYP3A5 expressed in supersomes assessed inhibition of 1'-OH midazolam formation preincubated with compound for 2.5 to 30 mins followed by addition of 20-fold diluted buffer with 20 uM MDZ by LC-MS method. The format is ADME. As to conditions: supersomes expressing human CYP3A5, probe midazolam (20 uM; 1'-OH midazolam formation).

Data set [9] addresses T5, Cytochrome P450 3A5. Nature of the data set: Inhibition of human CYP3A5 expressed in supersomes assessed inhibition of 1'-OH midazolam formation by LC-MS method. It counts as ADME.
For data set [10], the target named is T3, CYP3A. Nature of the data set: Reversible competitive inhibition of CYP3A-mediated 1'-OH midazolam formation in human liver microsomes after 7.5 mins by nonlinear regression study. It counts as ADME. As to conditions: probe midazolam (1'-OH midazolam formation).
The target of data set [11] is T4, CYP3A4. Nature of the data set: Ratio of IC50 for human CYP3A4 expressed in supersomes by coincubation study to IC50 for human CYP3A4 expressed in supersomes by preincubation study. As to conditions: supersomes expressing human CYP3A4, read-out: Ratio IC50.
The target in data set [12] is T5, Cytochrome P450 3A5. Nature of the data set: Reversible competitive inhibition of human CYP3A5-mediated 1'-OH midazolam formation in human liver microsomes after 7.5 mins by nonlinear regression study. The format is ADME.
Data set [13] has as its target T3, CYP3A. Nature of the data set: Competitive inhibition of CYP3A in human liver microsomes. The format is ADME.
The target in data set [14] is T2, CYP3A5. Nature of the data set: Ratio of IC50 for human CYP3A5 expressed in supersomes by coincubation study to IC50 for human CYP3A5 expressed in supersomes by preincubation study. Conditions: supersomes expressing human CYP3A5, read-out: Ratio IC50.
The target of data set [15] is T1, Cytochrome P450 3A4. Nature of the data set: Inhibition of human CYP3A4 expressed in supersomes assessed inhibition of 1'-OH midazolam formation preincubated with compound before substrate addition by LC-MS method. The format is ADME.
For data set [16], the target named is T4, CYP3A4. Nature of the data set: Inhibition of human CYP3A4 expressed in supersomes assessed inhibition of 1'-OH midazolam formation preincubated at 2 uM followed by addition of 20-fold diluted buffer with 20 uM MDZ by LC-MS method in presence of NADPH. It counts as ADME. As to conditions: supersomes expressing human CYP3A4, probe midazolam (20 uM; 1'-OH midazolam formation).

Where [17] appears, read: human, recombinant enzyme, TDE = time-dependent effect.

T2 sequence (P20815 whole entry): as above
T1 sequence (P08684 whole entry): as the sequence (P08684 whole entry) above

As usually defined, the IC50 is the concentration needed to halve the response being measured. What is called inhibition is the drop in the measured response relative to a control, in per cent. A word on the kinact: it is the maximal first-order rate at which the target is inactivated. The Ki is the equilibrium dissociation constant of an inhibitor or competing ligand from its target. A lower Ki goes with tighter binding. Consider `C=CC[C@@H]1/C=C(\C)C[C@H](C)C[C@H](OC)[C@H]2O[C@@](O)(C(=O)C(=O)N3CCCC[C@H]3C(=O)O[C@H](/C(C)=C/[C@@H]3CC[C@@H](O)[C@H](OC)C3)[C@H](C)[C@@H](O)CC1=O)[C@H](C)C[C@@H]2OC` [TACROLIMUS ANHYDROUS], for which the IC50 at Cytochrome P450 3A4 [1] stood at 0.62 µM; at Cytochrome P450 3A5 [5], 0.14 µM; on CYP3A [7] it was 0.74 µM; on Cytochrome P450 3A5 [9], 0.63 µM; at Cytochrome P450 3A4 [15], 0.12 µM. In addition, the “inhibition (INH)” value on Cytochrome P450 3A4 [1] (setting [17]), at Cytochrome P450 3A5 [5] (setting [17]), at Cytochrome P450 3A5 [9] (setting [17]) and on Cytochrome P450 3A4 [15] (setting [17]) was “tde” each time. In addition, the inhibition at 2 µM stood at 52% at CYP3A5 [2] and 42% at CYP3A4 [16]. On CYP3A [3], this compound yielded an IC50 at 7.5 min of 0.94 µM. Moreover, the kinact at CYP3A4 [4] is 0.005 s⁻¹; at CYP3A5 [8] it was 0.0035 s⁻¹. In addition, the Ki turned out to be 2.66 µM at Cytochrome P450 3A4 [6], 2.69 µM at Cytochrome P450 3A5 [12] and 0.36 µM on CYP3A [13]. The compound also registered a Ki at 7.5 min at CYP3A [10] of 0.61 µM. In addition, the IC50 shift at CYP3A4 [11] and at CYP3A5 [14] was 5 throughout.
